# Results: patent US20190262330A1, “Method of Treating Hepatocellular Carcinoma Using N-(4-(6,7-dimethoxyquinolin-4-yloxy)phenyl)-N′-(4-fluorophenyl)cyclopropane-1,1-dicarboxamide, (2S)-hydroxybutanedioate” (Exelixis, Inc., priority 2017, published 2019)
# Assays:
# [1] = system: patients with advanced hepatocellular carcinoma; assay: Phase 3 CELESTIAL trial, safety; assay type: in vivo, human
# Protocol: Treatment interruptions and dose reductions (to 40 mg and then to 20 mg) were utilized to manage adverse events. Patients received study treatment as long as they experienced clinical benefit as judged by the investigator or until they experienced unacceptable toxicity.
# Secondary efficacy endpoints were progression-free survival, defined as the time from randomization to the earlier of radiographic progression or death due to any cause, and objective response rate. Tumor assessments were performed using computed tomography or magnetic resonance imaging at baseline and every 8 weeks after randomization until the later of 8 weeks after radiographic progression or treatment discontinuation. Tumor response and progression were assessed by the investigator using Response Evaluation Criteria In Solid Tumors (RECIST) version 1.1. Eisenhauer E A, Therasse P, Bogaerts J, et al. New response evaluation criteria in solid tumours: revised RECIST guideline (version 1.1). Eur J Cancer 2009; 45:228-47. Safety was continuously evaluated, and the severity of adverse events was assessed by the investigator using the National Cancer Institute Common Terminology Criteria for Adverse Events, version 4. Progression-free survival was tested by stratified log-rank test; significance level 0.04. Overall response rate was tested by 2-sided Fisher's exact test; significance level Of 0.01.
# Efficacy was analyzed in all randomized patients by the intent-to-treat principle. Safety was analyzed in all patients who received at least one dose of study treatment. For time-to-event endpoints, hypothesis testing was done using the stratified log-rank test with the stratification factors used for randomization; median durations and associated 95% confidence intervals were estimated using the Kaplan-Meier method. Hazard ratios were estimated using Cox regression models. Hypothesis testing for objective response was done with the Cochran-Mantel-Haenszel method. All subgroup analyses of overall survival and progression-free survival were prespecified except for those based on extrahepatic spread of disease or macrovascular invasion as separate factors or sorafenib as the only prior therapy. For subgroup analyses, no adjustments were made for multiplicity, hazard ratios are unstratified, and confidence intervals are considered descriptive.
# Patients on both arms who had disease progression could continue treatment at the discretion of the investigator [see Clinical Studies (14)].
# [2] = system: previously treated advanced HCC; assay: CELESTIAL secondary analysis: target lesion size, serum AFP, time to progression; assay type: in vivo, human
# Protocol: Patients must have received prior sorafenib and were allowed up to 2 lines of prior systemic therapy for HCC. Change in the sum of target lesion diameters (SOD) from baseline was determined every 8 weeks by investigator. Best percentage change in SOD was defined as the maximum reduction in SOD at any postbaseline timepoint. Serum AFP levels were measured centrally at baseline and every 8 weeks on the same schedule as tumor assessments. TTP was defined as the time from randomization to radiological progression or clinical deterioration and was determined retrospectively.
# [3] = system: juvenile rats; assay type: in vivo, rat
# Protocol: […]. Mortalities occurred at doses equal and greater than 1 mg/kg/day (approximately 0.16 times the clinical dose of 60 mg/day based on body surface area).
# [4] = target: VEGFR-3 (Homo sapiens, UniProt P35916); assay: In vitro biochemical and/or cellular kinase assays
# [5] = target: KIT (Homo sapiens, UniProt P10721); assay: In vitro biochemical and/or cellular kinase assays
# [6] = target: FLT-3 (Homo sapiens, UniProt P36888); assay: In vitro biochemical and/or cellular kinase assays
# [7] = system: CYP3A4; assay: Drug interaction with strong CYP3A4 inducer rifampin; assay type: in vivo, human; details: rifampin 600 mg daily for 31 days, healthy subjects
# [8] = target: T1, CYP3A4 (Homo sapiens, UniProt P08684); assay: In vitro metabolic pathways; assay type: in vitro ADME
# [9] = target: T2, CYP1A2 (Homo sapiens, UniProt P05177); assay: In vitro metabolic pathways; assay type: in vitro ADME
# [10] = target: CYP2B6 (Homo sapiens, UniProt P20813); assay: In vitro metabolic pathways; assay type: in vitro ADME
# [11] = target: CYP2C8 (Homo sapiens, UniProt P10632); assay: In vitro metabolic pathways; assay type: in vitro ADME
# [12] = target: T2, CYP1A2; assay: In vitro CYP inhibition; assay type: in vitro ADME
# [13] = target: CYP2C9 (Homo sapiens, UniProt P11712); assay: In vitro CYP inhibition; assay type: in vitro ADME
# [14] = target: CYP2C19 (Homo sapiens, UniProt P33261); assay: In vitro CYP inhibition; assay type: in vitro ADME
# [15] = system: CYP1A2; assay: In vitro CYP induction; assay type: in vitro ADME
# [16] = system: CYP2B6; assay: In vitro CYP induction; assay type: in vitro ADME
# [17] = system: CYP2C8; assay: In vitro CYP induction; assay type: in vitro ADME
# [18] = system: female rats; assay: 14-day general toxicology study in female rats; assay type: in vivo, rat; details: 5 mg/kg/day for 14 days
# [19] = system: murine models of hepatocellular carcinoma; details: mouse, in vivo; cited from earlier work
# [20] = target: T1, CYP3A4; assay: Drug interaction with strong CYP3A4 inhibitor ketoconazole; assay type: in vivo; design: from tissue; details: ketoconazole 400 mg daily for 27 days, healthy subjects
# [21] = system: pregnant rats; assay: Embryo-fetal development study in pregnant rats; details: daily oral, throughout organogenesis
# T2 sequence (P05177 whole entry): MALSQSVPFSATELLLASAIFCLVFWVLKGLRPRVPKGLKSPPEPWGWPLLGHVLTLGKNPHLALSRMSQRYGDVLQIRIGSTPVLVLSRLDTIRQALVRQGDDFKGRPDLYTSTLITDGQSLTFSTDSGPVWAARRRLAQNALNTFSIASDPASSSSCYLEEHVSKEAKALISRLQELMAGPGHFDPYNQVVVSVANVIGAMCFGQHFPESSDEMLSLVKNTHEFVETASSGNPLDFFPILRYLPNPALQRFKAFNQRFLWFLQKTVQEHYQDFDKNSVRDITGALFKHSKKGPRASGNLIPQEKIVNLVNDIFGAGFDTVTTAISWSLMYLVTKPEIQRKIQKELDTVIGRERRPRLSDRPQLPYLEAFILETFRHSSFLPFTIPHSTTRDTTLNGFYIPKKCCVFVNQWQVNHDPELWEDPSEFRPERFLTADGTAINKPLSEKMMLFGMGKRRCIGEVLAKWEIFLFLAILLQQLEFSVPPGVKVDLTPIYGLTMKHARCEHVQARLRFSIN
# T1 sequence (P08684 whole entry): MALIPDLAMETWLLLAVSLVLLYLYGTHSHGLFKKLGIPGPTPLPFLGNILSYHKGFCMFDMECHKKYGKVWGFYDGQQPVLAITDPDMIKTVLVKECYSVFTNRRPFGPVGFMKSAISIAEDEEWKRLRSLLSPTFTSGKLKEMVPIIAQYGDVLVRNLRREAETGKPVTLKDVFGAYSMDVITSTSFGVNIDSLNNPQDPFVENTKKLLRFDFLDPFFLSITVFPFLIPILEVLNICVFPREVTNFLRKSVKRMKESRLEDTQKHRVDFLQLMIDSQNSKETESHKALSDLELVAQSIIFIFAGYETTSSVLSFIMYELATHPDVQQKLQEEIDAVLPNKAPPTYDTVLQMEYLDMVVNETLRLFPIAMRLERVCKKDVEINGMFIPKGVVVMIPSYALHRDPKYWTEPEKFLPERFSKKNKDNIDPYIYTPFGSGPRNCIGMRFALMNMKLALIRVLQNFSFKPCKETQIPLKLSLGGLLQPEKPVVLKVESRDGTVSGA
# Sequence of CYP2C19 (P33261 whole entry): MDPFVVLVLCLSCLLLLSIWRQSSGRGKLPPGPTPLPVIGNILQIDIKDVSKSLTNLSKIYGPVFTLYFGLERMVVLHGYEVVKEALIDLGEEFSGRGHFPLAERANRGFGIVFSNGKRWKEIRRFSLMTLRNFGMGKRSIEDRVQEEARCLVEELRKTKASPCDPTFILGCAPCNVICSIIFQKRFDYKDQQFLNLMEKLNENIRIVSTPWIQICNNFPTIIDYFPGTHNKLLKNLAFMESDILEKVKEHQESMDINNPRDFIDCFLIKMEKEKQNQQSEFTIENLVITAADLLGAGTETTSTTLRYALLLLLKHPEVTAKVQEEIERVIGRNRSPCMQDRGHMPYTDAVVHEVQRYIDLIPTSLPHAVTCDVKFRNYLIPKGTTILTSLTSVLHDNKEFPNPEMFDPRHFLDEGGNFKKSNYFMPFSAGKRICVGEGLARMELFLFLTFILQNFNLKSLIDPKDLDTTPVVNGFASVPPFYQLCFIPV
# Sequence of FLT-3 (P36888 27-993): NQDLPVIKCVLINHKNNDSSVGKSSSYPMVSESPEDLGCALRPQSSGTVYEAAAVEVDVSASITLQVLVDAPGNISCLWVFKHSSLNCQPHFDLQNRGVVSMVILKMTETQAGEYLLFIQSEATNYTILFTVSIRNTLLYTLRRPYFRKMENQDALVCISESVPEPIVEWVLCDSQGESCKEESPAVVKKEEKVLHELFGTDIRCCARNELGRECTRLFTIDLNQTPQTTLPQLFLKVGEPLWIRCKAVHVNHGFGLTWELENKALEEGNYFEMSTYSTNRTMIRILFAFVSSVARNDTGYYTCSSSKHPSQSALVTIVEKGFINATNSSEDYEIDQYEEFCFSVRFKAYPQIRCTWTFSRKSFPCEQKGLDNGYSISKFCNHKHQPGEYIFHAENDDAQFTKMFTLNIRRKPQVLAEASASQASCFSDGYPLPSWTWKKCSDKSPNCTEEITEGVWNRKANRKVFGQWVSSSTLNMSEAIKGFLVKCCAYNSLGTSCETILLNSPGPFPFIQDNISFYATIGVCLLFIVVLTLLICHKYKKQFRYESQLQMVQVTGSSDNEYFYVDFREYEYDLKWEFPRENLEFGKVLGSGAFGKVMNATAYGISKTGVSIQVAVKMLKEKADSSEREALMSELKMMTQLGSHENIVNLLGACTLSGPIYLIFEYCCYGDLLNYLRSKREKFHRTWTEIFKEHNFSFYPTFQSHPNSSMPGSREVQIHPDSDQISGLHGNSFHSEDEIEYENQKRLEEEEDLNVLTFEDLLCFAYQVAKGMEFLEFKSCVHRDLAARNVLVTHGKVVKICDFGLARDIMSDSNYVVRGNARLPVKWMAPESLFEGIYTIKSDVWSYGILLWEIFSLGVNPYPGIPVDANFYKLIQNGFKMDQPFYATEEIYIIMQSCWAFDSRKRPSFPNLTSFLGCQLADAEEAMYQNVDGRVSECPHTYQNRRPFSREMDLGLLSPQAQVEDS
# Sequence of KIT (P10721 26-976): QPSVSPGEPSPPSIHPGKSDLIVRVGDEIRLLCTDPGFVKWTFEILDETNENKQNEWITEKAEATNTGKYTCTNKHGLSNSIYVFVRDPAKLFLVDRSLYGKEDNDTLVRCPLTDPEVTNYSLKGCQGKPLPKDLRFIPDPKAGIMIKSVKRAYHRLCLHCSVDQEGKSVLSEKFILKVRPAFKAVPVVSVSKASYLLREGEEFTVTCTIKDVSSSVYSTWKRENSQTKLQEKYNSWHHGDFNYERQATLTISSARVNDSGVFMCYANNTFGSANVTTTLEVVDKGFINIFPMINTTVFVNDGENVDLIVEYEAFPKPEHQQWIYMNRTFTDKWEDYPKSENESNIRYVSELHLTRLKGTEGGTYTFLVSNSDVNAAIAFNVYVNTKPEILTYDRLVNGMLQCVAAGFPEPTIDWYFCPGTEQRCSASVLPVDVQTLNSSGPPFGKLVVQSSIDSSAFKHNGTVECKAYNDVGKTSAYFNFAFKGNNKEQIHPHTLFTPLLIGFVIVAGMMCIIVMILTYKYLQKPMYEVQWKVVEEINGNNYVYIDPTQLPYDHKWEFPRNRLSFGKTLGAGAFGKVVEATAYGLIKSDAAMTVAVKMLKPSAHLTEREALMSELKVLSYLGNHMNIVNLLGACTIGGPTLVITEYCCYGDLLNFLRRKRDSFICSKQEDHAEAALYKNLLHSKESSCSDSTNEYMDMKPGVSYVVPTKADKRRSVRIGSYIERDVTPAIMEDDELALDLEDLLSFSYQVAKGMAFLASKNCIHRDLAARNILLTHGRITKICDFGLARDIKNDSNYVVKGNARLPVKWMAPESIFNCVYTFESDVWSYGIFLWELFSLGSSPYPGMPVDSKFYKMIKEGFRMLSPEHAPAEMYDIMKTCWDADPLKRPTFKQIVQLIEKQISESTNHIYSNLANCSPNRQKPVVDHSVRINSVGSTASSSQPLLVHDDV
# Sequence of VEGFR-3 (P35916 25-1363): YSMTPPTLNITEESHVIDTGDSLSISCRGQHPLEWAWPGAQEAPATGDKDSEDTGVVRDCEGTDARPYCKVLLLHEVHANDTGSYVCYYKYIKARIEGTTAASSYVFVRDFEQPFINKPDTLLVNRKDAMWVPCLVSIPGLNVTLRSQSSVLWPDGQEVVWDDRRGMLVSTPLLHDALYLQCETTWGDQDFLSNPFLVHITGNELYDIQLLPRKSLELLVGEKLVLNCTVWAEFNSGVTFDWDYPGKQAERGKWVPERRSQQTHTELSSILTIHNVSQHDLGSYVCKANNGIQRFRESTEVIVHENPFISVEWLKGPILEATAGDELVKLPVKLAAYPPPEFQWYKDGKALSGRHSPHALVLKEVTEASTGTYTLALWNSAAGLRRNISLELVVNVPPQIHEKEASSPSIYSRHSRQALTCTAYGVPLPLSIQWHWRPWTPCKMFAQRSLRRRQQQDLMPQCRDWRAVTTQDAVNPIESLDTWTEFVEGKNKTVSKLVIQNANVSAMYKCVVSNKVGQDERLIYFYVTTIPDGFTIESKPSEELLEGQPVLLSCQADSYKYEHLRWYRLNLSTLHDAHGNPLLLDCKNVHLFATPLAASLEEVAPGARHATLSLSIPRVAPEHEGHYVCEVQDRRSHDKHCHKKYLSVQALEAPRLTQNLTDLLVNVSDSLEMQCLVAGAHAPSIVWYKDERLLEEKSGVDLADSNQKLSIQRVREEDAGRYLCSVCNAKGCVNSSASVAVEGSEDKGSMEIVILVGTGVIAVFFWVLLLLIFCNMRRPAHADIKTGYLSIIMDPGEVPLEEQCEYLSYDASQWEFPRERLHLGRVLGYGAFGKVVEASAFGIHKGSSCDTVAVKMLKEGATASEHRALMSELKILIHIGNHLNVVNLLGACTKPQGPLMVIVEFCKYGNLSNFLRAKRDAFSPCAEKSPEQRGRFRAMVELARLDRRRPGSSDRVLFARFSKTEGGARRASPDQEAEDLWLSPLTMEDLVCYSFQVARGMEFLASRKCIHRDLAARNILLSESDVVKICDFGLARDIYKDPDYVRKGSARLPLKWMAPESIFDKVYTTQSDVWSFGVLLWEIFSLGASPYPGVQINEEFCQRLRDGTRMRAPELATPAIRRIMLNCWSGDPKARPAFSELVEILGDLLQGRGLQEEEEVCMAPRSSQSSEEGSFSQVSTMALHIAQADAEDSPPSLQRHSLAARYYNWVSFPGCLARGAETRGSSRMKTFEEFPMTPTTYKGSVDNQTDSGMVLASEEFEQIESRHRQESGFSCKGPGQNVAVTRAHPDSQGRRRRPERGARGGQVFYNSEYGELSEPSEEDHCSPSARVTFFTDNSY
smiles,measurement,setting,value
COc1cc2nccc(Oc3ccc(NC(=O)C4(C(=O)Nc5ccc(F)cc5)CC4)cc3)c2cc1OC [cabozantinib],Grade 5 adverse events considered related to study treatment,[1]; CELESTIAL,6 patients
same,Grade 5 adverse events within 30 days of last dose,[1]; CELESTIAL,12%
same,Adverse events of any grade regardless of causality,"[1]; human, in vivo",99%
same,Adverse events of grade 3 or 4,"[1]; human, in vivo",68%
same,Any dose reduction,"[1]; human, in vivo",62%
same,"Diarrhea, Grade 3/4","[1]; human, in vivo",10%
same,Discontinuation due to treatment-related adverse event,"[1]; human, in vivo",16%
same,Dose reduction due to diarrhea,"[1]; human, in vivo",10%
same,Dose reduction due to fatigue,"[1]; human, in vivo",7%
same,Dose reduction due to hypertension,"[1]; human, in vivo",7%
same,Dose reduction due to increased aspartate aminotransferase,"[1]; human, in vivo",6%
same,Dose reduction due to palmar-plantar erythrodysesthesia syndrome,"[1]; human, in vivo",22%
same,"Fatigue, Grade 3/4","[1]; human, in vivo",10%
same,"Hypertension, Grade 3/4","[1]; human, in vivo",16%
same,"Increased aspartate aminotransferase, grade 3 or 4 adverse event","[1]; human, in vivo",12%
same,Median time to first dose reduction,"[1]; human, in vivo",38 days
same,"Palmar-plantar erythrodysesthesia, Grade 3/4","[1]; human, in vivo",17%
same,Serious adverse events,"[1]; human, in vivo",50%
same,Patients with any postbaseline reduction in SOD as best response,[2]; ITT,47%
same,Patients with ≥30% reduction in SOD,[2]; ITT,8%
same,Patients with ≥50% postbaseline decrease in serum AFP,[2]; ITT,23%
same,Patients with ≥30% reduction in postbaseline SOD,[2]; baseline AFP <400 ng/mL,9%
same,Patients with ≥30% reduction in postbaseline SOD,[2]; baseline AFP ≥400 ng/mL,7%
same,Median TTP,[2]; in vivo,5.4 months
same,Mortality,[3]; 2 mg/kg,high levels of mortality
same,Effects on bones,"[3]; rat, in vivo","reduced bone mineral content and density, physeal hypertrophy, and decreased cortical bone"
same,Recovery after treatment ceased,"[3]; rat, in vivo",effects on bone parameters were partially resolved but effects on the kidney and epididymis/testis persisted
same,Target organs,"[3]; rat, in vivo","kidney (nephropathy, glomerulonephritis), reproductive organs, gastrointestinal tract"
same,1 mg/kg/day as times the clinical dose of 60 mg/day based on body surface area,"[3]; rat, in vivo, 1 mg/kg/day",approximately 0.16 times
same,2 mg/kg as times the clinical dose of 60 mg based on body surface area,"[3]; rat, in vivo, 2 mg/kg",approximately 0.32 times
same,Tyrosine kinase activity of VEGFR-3,[4],inhibits
same,Tyrosine kinase activity of KIT,[5],inhibits
same,Tyrosine kinase activity of FLT-3,[6],inhibits
same,Decrease of single-dose plasma exposure (AUC0-inf),[7],77%
same,CYP3A4 substrate status,[8],substrate
same,Effect of inhibition of CYP1A2 on metabolite formation,[9],no effect
same,Effect of inhibition of CYP2B6 on metabolite formation,[10],no effect
same,Effect of inhibition of CYP2C8 on metabolite formation,[11],no effect
same,Inhibition of CYP1A2,[12],does not inhibit
same,Effect on CYP2C9 pathway,[13],affected by cabozantinib in vitro
same,Effect on CYP2C19 pathway,[14],affected by cabozantinib in vitro
same,Induction of CYP1A2,[15],does not induce
same,Induction of CYP2B6,[16],does not induce
same,Induction of CYP2C8,[17],does not induce
same,Ovarian finding,[18],ovarian necrosis
same,Tumor growth,[19],inhibits tumor growth
same,Increase of single-dose plasma exposure (AUC0-inf),[20],38%
same,Dose with delayed ossification and skeletal variations,[21],0.01 mg/kg/day
